In ChEMBL document CHEMBL5136973, “Update on the Development of MNK Inhibitors as Therapeutic Agents” (J Med Chem, 2022):

What was measured:
[1] = molecular target: T1, MAP kinase-interacting serine/threonine-protein kinase 1 (Homo sapiens, UniProt Q9BUB5); assay: Inhibition of Mnk1 (unknown origin) using eIF4E-derived (D 202 TATKSGSTTKNR 214) peptide as substrate incubated for 90 mins by IMAP TR-FRET assay
[2] = molecular target: T2, MAP kinase-interacting serine/threonine-protein kinase 2 (Homo sapiens, UniProt Q9HBH9); assay: Inhibition of His-tagged Mnk2 (unknown origin) using eIF4E-derived (D 202 TATKSGSTTKNR 214) peptide as substrate incubated for 90 mins by IMAP TR-FRET assay
Target sequence in this assay (Q9HBH9 whole entry): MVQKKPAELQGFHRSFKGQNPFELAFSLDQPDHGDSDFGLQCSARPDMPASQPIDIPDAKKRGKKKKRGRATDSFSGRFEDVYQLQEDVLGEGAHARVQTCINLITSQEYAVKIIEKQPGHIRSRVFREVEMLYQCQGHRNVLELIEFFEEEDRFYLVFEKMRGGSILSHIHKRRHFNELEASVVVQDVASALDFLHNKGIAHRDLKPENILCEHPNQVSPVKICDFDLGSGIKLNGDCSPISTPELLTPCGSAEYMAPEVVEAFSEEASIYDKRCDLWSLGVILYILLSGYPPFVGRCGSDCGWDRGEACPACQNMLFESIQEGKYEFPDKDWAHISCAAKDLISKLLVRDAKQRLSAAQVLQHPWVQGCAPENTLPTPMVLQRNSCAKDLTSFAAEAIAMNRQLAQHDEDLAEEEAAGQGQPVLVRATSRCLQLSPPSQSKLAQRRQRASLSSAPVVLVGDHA

[3] = molecular target: T2, MAP kinase-interacting serine/threonine-protein kinase 2; assay: Inhibition of Mnk2 (unknown origin)
Target sequence in this assay (Q9HBH9 whole entry): as above

[4] = molecular target: T1, MAP kinase-interacting serine/threonine-protein kinase 1; assay: Inhibition of Mnk1 (unknown origin)
[5] = molecular target: T2, MAP kinase-interacting serine/threonine-protein kinase 2; assay: Inhibition of MNK2 (unknown origin) at 123 nM
Target sequence in this assay (Q9HBH9 whole entry, looked up): as the sequence (Q9HBH9 whole entry) above

[6] = molecular target: Tyrosine-protein kinase BTK (Homo sapiens, UniProt Q06187); assay: Inhibition of FLAG-tagged BTK (unknown origin) transfected into HEK293T cells incubated for 30 mins followed by ATP addition measured after 20 mins by Western blotting analysis; format: cell-based, HEK293
Chain of Tyrosine-protein kinase BTK (Q06187 whole entry): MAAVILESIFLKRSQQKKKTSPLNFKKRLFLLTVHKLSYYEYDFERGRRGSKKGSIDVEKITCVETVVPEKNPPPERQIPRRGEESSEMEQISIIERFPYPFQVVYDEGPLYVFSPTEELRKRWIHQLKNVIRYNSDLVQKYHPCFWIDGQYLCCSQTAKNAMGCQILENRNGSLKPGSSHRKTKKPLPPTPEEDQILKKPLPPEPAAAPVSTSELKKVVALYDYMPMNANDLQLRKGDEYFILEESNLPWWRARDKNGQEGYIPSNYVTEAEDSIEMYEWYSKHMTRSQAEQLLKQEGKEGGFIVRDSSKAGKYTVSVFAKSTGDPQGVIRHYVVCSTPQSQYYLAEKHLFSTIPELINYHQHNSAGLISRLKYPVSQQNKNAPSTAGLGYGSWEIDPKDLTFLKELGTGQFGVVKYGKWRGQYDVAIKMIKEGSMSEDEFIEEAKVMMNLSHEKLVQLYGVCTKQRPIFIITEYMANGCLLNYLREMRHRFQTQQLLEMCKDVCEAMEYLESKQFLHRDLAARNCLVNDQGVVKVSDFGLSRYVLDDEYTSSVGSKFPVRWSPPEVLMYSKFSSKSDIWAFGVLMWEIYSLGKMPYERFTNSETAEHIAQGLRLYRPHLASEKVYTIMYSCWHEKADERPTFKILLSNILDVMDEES

[7] = molecular target: T1, MAP kinase-interacting serine/threonine-protein kinase 1; assay: Inhibition of FLAG-tagged Mnk1 (unknown origin) transfected into HEK293 cells incubated for 30 mins followed by ATP addition measured after 30 mins by Western blotting analysis; format: cell-based
[8] = molecular target: T2, MAP kinase-interacting serine/threonine-protein kinase 2; assay: Inhibition of FLAG-tagged Mnk2 (unknown origin) transfected into HEK293 cells incubated for 30 mins followed by ATP addition measured after 30 mins by Western blotting analysis; format: cell-based
Target sequence in this assay (Q9HBH9 whole entry): as the sequence (Q9HBH9 whole entry) above

[9] = molecular target: T3, Tyrosine-protein kinase JAK3 (Homo sapiens, UniProt P52333); assay: Inhibition of JAK3 (unknown origin)
T3 sequence (P52333 whole entry): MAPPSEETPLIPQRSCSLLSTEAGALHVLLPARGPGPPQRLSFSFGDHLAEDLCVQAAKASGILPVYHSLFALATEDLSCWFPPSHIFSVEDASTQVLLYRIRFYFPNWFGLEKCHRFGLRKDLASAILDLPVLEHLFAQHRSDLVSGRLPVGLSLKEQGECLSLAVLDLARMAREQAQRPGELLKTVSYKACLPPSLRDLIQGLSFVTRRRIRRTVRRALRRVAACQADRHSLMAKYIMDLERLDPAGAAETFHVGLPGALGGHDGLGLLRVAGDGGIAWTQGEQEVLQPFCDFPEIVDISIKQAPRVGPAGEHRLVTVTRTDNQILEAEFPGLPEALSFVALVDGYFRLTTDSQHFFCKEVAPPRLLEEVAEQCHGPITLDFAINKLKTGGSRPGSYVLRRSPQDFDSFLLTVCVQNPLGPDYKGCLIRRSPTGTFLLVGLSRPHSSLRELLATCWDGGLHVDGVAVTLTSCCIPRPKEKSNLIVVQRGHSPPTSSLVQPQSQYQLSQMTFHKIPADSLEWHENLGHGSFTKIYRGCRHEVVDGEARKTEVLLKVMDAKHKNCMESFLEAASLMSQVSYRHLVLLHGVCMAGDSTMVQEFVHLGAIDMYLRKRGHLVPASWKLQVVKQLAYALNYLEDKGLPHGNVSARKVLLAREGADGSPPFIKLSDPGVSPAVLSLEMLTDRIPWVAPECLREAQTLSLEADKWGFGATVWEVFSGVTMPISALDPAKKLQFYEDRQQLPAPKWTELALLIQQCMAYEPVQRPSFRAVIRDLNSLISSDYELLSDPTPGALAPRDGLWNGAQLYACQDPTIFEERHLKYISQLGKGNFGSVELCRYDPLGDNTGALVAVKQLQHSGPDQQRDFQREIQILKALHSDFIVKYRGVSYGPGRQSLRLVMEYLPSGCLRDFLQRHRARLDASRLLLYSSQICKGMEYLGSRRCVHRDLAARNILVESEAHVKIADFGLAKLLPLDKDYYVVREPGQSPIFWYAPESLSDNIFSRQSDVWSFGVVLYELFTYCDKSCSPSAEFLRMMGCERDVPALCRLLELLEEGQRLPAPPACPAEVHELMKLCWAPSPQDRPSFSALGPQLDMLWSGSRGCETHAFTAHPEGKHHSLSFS

MV4-11 [10] = assay: Induction of cell cycle arrest in human MV4-11 cells assessed as increase in sub G1/G2 DNA content at 20 uM (reference value: 64%); format: functional
MV4-11 [11] = assay: Growth inhibition of human MV4-11 cells measured after 72 hrs; format: functional
[12] = molecular target: T1, MAP kinase-interacting serine/threonine-protein kinase 1; assay: Binding affinity to Mnk1 (unknown origin)
[13] = molecular target: T2, MAP kinase-interacting serine/threonine-protein kinase 2; assay: Binding affinity to Mnk2 (unknown origin)
Target sequence in this assay (Q9HBH9 whole entry): as the sequence (Q9HBH9 whole entry) above

[14] = Volume of distribution at steady state in male RH:Foxn1 nude rat; format: ADME; settings: in vivo, read-out: Vdss
[15] = Volume of distribution at steady state in female NMRI-nu/nu mouse; format: ADME; settings: in vivo, read-out: Vdss
[16] = Clearance in male RH:Foxn1 nude rat; format: ADME; settings: in vivo
[17] = Clearance in female NMRI-nu/nu mouse; format: ADME; settings: in vivo
[18] = Intermediate elimination half life in female NMRI-nu/nu mouse; format: ADME; settings: in vivo, read-out: beta t1/2 (converted)
[19] = Intermediate elimination half life in male RH:Foxn1 nude rat; format: ADME; settings: in vivo, read-out: beta t1/2 (converted)
[20] = Oral bioavailability in female NMRI-nu/nu mouse; format: ADME, organism-based; settings: in vivo
[21] = Oral bioavailability in male RH:Foxn1 nude rat; format: ADME, organism-based; settings: in vivo
[22] = Antitumor activity against human Lu7462 patient-derived NSCLC cells xenografted in female NMRI-nu/nu mouse assessed as T/C ratio at 200 mg/kg, po, qd for 94 days; format: functional; settings: time 94 day
[23] = molecular target: T2, MAP kinase-interacting serine/threonine-protein kinase 2; assay: Binding affinity to His-tagged Mnk2 (unknown origin) using D 202 TATKSGSTTKNR 214 as substrate by TR-FRET assay
Target sequence in this assay (Q9HBH9 whole entry): as the sequence (Q9HBH9 whole entry) above

MV4-11 [24] = assay: Growth inhibition of human MV4-11 cells incubated for 72 hrs by multilabel plate reader method; format: functional
[25] = Growth inhibition of human Acute myeloid leukemic cells incubated for 72 hrs by multilabel plate reader method; format: functional; settings: Acute myeloid leukemic cell
[26] = molecular target: T1, MAP kinase-interacting serine/threonine-protein kinase 1; assay: Inhibition of inactive form of MNK1 (unknown origin)
[27] = molecular target: T1, MAP kinase-interacting serine/threonine-protein kinase 1; assay: Inhibition of Mnk1 (unknown origin) by ADP-Glo assay
[28] = molecular target: T2, MAP kinase-interacting serine/threonine-protein kinase 2; assay: Inhibition of Mnk2 (unknown origin) by ADP-Glo assay
Target sequence in this assay (Q9HBH9 whole entry): as the sequence (Q9HBH9 whole entry) above

A2780 = assay: Antiproliferative activity against human A2780 cells; format: functional
SK-OV-3 = assay: Antiproliferative activity against human SK-OV-3 cells; format: functional
PC-3 = assay: Antiproliferative activity against human PC-3 cells; format: functional
MOLM-13 = assay: Antiproliferative activity against human MOLM-13 cells; format: functional

T1 sequence (Q9BUB5 whole entry): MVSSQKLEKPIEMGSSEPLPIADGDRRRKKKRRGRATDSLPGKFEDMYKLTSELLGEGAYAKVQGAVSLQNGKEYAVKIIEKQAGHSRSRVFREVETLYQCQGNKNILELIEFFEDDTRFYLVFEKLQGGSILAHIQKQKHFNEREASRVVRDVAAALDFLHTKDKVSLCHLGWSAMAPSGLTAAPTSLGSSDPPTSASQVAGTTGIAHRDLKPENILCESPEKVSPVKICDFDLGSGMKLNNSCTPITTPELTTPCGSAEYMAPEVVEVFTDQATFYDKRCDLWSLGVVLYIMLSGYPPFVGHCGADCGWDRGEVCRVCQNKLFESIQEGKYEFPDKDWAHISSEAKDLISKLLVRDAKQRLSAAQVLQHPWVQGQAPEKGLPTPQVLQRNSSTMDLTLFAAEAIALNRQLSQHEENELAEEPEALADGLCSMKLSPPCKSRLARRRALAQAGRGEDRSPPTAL

SMILES: Cc1c(C(=O)O)sc2ncnc(Nc3ccc(F)cc3OC(CF)CF)c12
- IC50 [1]: 147000 nM
- IC50 [2]: 50000 nM

SMILES: Fc1ccc2c(c1)CCN2c1ncnc2cc[nH]c12
- IC50 [3]: 31.6 nM
- IC50 ([4]; read-out: pIC50 (converted)): 39.8 nM

SMILES: CNC(=O)c1nc2c(Nc3ccc(F)cc3OC(C)C)ncnc2s1
- IC50 [3]: 31.6 nM
- IC50 ([4]; read-out: pIC50 (converted)): 50.1 nM

SMILES: Cn1ccc2ncnc(Nc3ccc(F)cc3OC(CF)CF)c21
- IC50 [3]: 50.1 nM
- IC50 ([4]; read-out: pIC50 (converted)): 158 nM

SMILES: Cc1ccc(C(=O)Nc2ccc(CN3CCN(C)CC3)c(C(F)(F)F)c2)cc1C#Cc1cnc2cccnn12
- inhibition [5]: 32%

SMILES: CN(C)CCCNC(=O)c1nc2c(N3CC(C)(C)c4ccccc43)ncnc2s1
- IC50 [3]: 3.98 nM
- IC50 ([4]; read-out: pIC50 (converted)): 6.31 nM

SMILES: CC1(C)CN(c2ncnc3sc(C(=O)NCC4CCNCC4)nc23)c2ccccc21
- IC50 [3]: 2.51 nM
- IC50 ([4]; read-out: pIC50 (converted)): 3.16 nM

SMILES: Cc1ncc(C(=O)Nc2ccc(CN3CCN(C)CC3)c(C(F)(F)F)c2)cc1C#Cc1cnc2cccnn12
- inhibition [5]: 51%

SMILES: CO[C@@H]1COC[C@@H]1Oc1cc(F)ccc1Nc1ncnc2cc(N=S3(=O)CCCC3)cc(Cl)c12
- IC50 [4]: 45 nM

SMILES: C=CC(=O)Nc1cc(-n2c(=O)ccc3cnc4ccc(-c5cn[nH]c5)cc4c32)ccc1C
- IC50 [6]: 9.4 nM
- IC50 [7]: 107 nM
- IC50 [8]: 26 nM
- IC50 [9]: 55.7 nM

SMILES: Nc1cccc2c1cnn2-c1ncnc2[nH]ccc12
- Activity (MV4-11 [10]): 92%

SMILES: O=C(NCC1CCNCC1)c1nc2c(N3CCc4cc(F)ccc43)ncnc2s1
- IC50 [3]: 3.98 nM
- IC50 ([4]; read-out: pIC50 (converted)): 5.01 nM

SMILES: Fc1ccc(Nc2ncnc3[nH]ccc23)nc1
- GI50 (MV4-11 [11]): 8190 nM
- Ki [12]: 1080 nM
- Ki [13]: 430 nM

SMILES: O=C(NCC1CCNCC1)c1nc2c(N3CCc4cc(Cl)ccc43)ncnc2s1
- IC50 [3]: 3.16 nM
- IC50 ([4]; read-out: pIC50 (converted)): 3.16 nM

SMILES: CN(C)CCCNC(=O)c1nc2c(N3CCc4ccccc43)ncnc2s1
- IC50 [3]: 7.94 nM
- IC50 ([4]; read-out: pIC50 (converted)): 10 nM

SMILES: CC(C)Oc1cc(C#N)ccc1Nc1ncnc2ccn(C)c12
- IC50 [3]: 25.1 nM
- IC50 ([4]; read-out: pIC50 (converted)): 50.1 nM

SMILES: C[C@H](CN)Oc1ccc2ncc(-c3cc4ccccc4o3)n2n1
- Vd [14]: 0.87 L/kg
- Vd [15]: 6 L/kg
- clearance [16]: 6.83 mL/min/kg
- clearance [17]: 39 mL/min/kg
- half-life [18]: 1.2 h
- half-life [19]: 1.2 h
- bioavailability [20]: 71%
- bioavailability [21]: 78%
- T/C [22]: 0.33

SMILES: CC(C)Oc1cc(F)ccc1Nc1ncnc2sc(C(=O)NCC3CCNCC3)nc12
- IC50 [3]: 50.1 nM
- IC50 ([4]; read-out: pIC50 (converted)): 50.1 nM

SMILES: Cn1ccc2ncnc(Nc3ccc(F)cc3O[C@@H]3CCCOC3)c21
- IC50 [3]: 31.6 nM
- IC50 ([4]; read-out: pIC50 (converted)): 63.1 nM

SMILES: Cc1c(-c2ccnc(Nc3ccccc3OC(F)F)n2)sc(=O)n1C
- Ki [23]: 120 nM
- GI50 (MV4-11 [24]): 780 nM
- GI50 [25]: 880 nM

SMILES: CN(C)CCCNC(=O)c1nc2c(N3CCc4cc(F)ccc43)ncnc2s1
- IC50 [3]: 2 nM
- IC50 ([4]; read-out: pIC50 (converted)): 2.51 nM

SMILES: CN1CCC(C(=O)Nc2ncc(-c3ccccc3)s2)CC1
- IC50 [26]: 21 nM

SMILES: CN(C)CCCNC(=O)c1cc2ncnc(N3CCc4cc(F)ccc43)c2n1C
- IC50 [3]: 12.6 nM
- IC50 ([4]; read-out: pIC50 (converted)): 12.6 nM

SMILES: O=S1(=Nc2cc(Cl)c3c(Nc4ccc(F)cc4O[C@H]4COC[C@@H]4O)ncnc3c2)CCC1
- IC50 [4]: 18 nM

SMILES: CC(C)Oc1cc(F)ccc1Nc1ncnc2cc(C(=O)NCCCN(C)C)n(C)c12
- IC50 [3]: 39.8 nM
- IC50 ([4]; read-out: pIC50 (converted)): 50.1 nM

SMILES: COc1ncc(C)cc1Nc1ncnc2[nH]ccc12
- GI50 (MV4-11 [11]): 4640 nM
- Ki [12]: 740 nM
- Ki [13]: 1320 nM

SMILES: COc1cc(N=S(C)(=O)C(C)(C)C)cc2ncnc(Nc3ccc(F)cc3O[C@H]3COC[C@H]3O)c12 (stereo partly drawn)
- IC50 [4]: 329 nM

SMILES: CN(Cc1ccon1)Cc1cc(-c2ccnc3cc(Cl)ccc23)ccc1O
- IC50 [27]: 4700 nM
- IC50 [28]: 2600 nM

SMILES: O=C1NC2(CCCCC2)n2c1c(Cl)cc(Nc1ccncn1)c2=O
- GI50 (A2780): < 10000 nM
- GI50 (SK-OV-3): < 10000 nM
- GI50 (PC-3): < 10000 nM
- GI50 (MOLM-13): < 10000 nM

SMILES: Cn1ccc2ncnc(Nc3ccc(F)cc3OC3CCCC3)c21
- IC50 [3]: 31.6 nM
- IC50 ([4]; read-out: pIC50 (converted)): 126 nM

SMILES: CO[C@@H]1COC[C@@H]1Oc1cc(F)ccc1Nc1ncnc2cc(N=S(C)(C)=O)cc(C)c12
- IC50 [4]: 80 nM

SMILES: CC(C)Oc1cc(F)ccc1Nc1ncnc2sc(C(=O)NCCN3CCNCC3)nc12
- IC50 [3]: 31.6 nM
- IC50 ([4]; read-out: pIC50 (converted)): 50.1 nM

SMILES: COc1cc(N=S2(=O)CCC2)cc2ncnc(Nc3cccnc3O[C@H]3COC[C@H]3O)c12
- IC50 [4]: 104 nM

SMILES: CC(C)Oc1cc(F)ccc1Nc1ncnc2cc(C(=O)NCC3CCNCC3)n(C)c12
- IC50 [3]: 39.8 nM
- IC50 ([4]; read-out: pIC50 (converted)): 39.8 nM
